Measured values reported in patent publication US7470658B2, “Methods for inhibiting tumor metastasis, and peptides useful therefor” (Burnham Institute for Medical Research, priority 1999, dated 2008).

Tests used:
[1] = test system: E-selectin:IgG; conditions: comparison value for the heptapeptides; read-out: IC50 by ELISA binding assay using biotinylated sLe^a-PAA and E-selectin:IgG; cited from earlier work
[2] = test system: human melanoma MeWo cells; experiment: In vivo lung metastasis of human melanoma MeWo cells transfected with fucosyltransferase-III; conditions: peptide 500 mg/100 ml/mouse i.v. 20 minutes before cells; after 3 weeks (FIG. 2C)
Protocol: (§1) The effect of IELLQAR (SEQ ID NO:7) phage and peptides on E-selectin mediated tumor metastasis was examined using mouse B16 melanoma cells or human melanoma MeWo cells transfected with fucosyltransferase-III, an enzyme which synthesizes sLe^x, as described in Kukowska-Latallo et al., Genes & Develop., 4:1288-1303 (1990). […] To test whether the heptapeptide sequence IELLQAR (SEQ ID NO:7) could inhibit metastasis in vivo, mice were injected with IELLQAR (SEQ ID NO:7) phage and with B16 cells through a tail vein and assayed for the presence of metastatic foci.
(§2) Phage (1×10^8 transducing units/100 ml/mouse) or peptide (500 mg/100 ml/mouse), each of which was equivalent to an amount 100 times the concentration required to inhibit binding between HL-60 to E-selectin determined by the in vitro assay described above in Example II (FIG. 1F), were injected intravenously into female mice (C57 black) that were 5-6 weeks old. The control phage lacks a consensus heptapeptide. The control peptide used in these experiments is MAPS alanine. After 20 minutes, metastatic tumor cells (2×10^5 cells) were administered through a tail vein. After 3 weeks, the numbers of metastatic foci appearing in the lung were counted.

[3] = target: E-selectin; experiment: Inhibition of binding between sLe^x-PAA-biotin and E-selectin:IgG by phage or peptides (ELISA); conditions: synthetic peptides (FIG. 1E); read-out: half inhibition value (IC50) of binding between sLe^x and E-selectin
Sequence of E-selectin (P16581 22-175 limits assumed): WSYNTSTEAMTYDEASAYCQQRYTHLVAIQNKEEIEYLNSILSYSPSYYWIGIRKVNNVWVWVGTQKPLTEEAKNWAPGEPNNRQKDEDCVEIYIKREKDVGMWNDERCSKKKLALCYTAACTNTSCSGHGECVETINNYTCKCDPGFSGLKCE
Protocol: The inhibition of binding between sLe^x and E-selectin:IgG by phage or peptides was assayed by adding five hundred ng of polymeric sLe^x (sLe^x-PAA-biotin, GlycoTech, Rocksville, Md.) to wells in the presence or absence of phage or peptide. After incubating at room temperature for 1 hour, wells were washed with TBS containing CaCl2, and sLe^x-PAA-biotin bound to each selectin was determined using the peroxidase conjugated avidin and peroxidase substrate ABTS (Pierce, Rockford, Ill.). The OD405 was read in an ELISA reader. The synthetic peptides used were linear IELLQAR (SEQ ID NO:7), cyclic CIELLQARC (SEQ ID NO:13) (cysteins linked by disulfide bonds are underlined), and IELLQAR (SEQ ID NO:7) multivalent (Fmoc eight branch), which was synthesized by AnaSpec, Inc. (San Jose, Calif.).

[4] = test system: human lung carcinoma HAL-8 cells; experiment: In vivo lung metastasis of human lung carcinoma HAL-8 cells; parameters: species or system mouse; conditions: peptide pre-treatment i.v.
Protocol: as §2
The effect of IELLQAR (SEQ ID NO:7) peptide was assayed in the same manner described above.

[5] = test system: mouse B16 melanoma cells; experiment: In vivo lung metastasis of B16 melanoma cells transfected with fucosyltransferase-III; conditions: peptide 500 mg/100 ml/mouse i.v. 20 minutes before 2×10^5 cells; foci counted after 3 weeks (FIG. 2B)
Protocol: as §1, §2

[6] = test system: B16 melanoma cells in the lung; experiment: Immunohistochemistry of B16 melanoma cells in the lung (anti-melanoma HMB45); format: in vivo, mouse; conditions: pre-treated mice, one hour after administration of B16 cells
Protocol: Next, the immunohistochemistry in the mouse lung of melanoma cells injected intravenously was assayed. Mice were injected intravenously with either control phage, IELLQAR (SEQ ID NO:7) phage, control peptide, or IELLQAR (SEQ ID NO:7) peptide, followed by injection with B16 melanoma cells. One hour after administering B16 melanoma cells, the lungs were fixed in 4% paraformaldehyde and paraffin sections were prepared. The melanoma cells in the lung were visualized by immunostaining using anti-melanoma HMB45 mouse monoclonal IgG1 antibody (DAKO, Carpinteria, Calif.) by the peroxidase method (Vectastatin ABC kit, Vector, Burlingame, Calif.).

[7] = test system: vascular endothelial cells of the lung; experiment: Mouse lung histochemical analysis after intravenous injection of biotinylated peptide; format: in vivo; conditions: i.v. injection, one hour, peroxidase conjugated avidin
Text: Control peptide corresponding to MAPS alanine and IELLQAR (SEQ ID NO:7) peptide were biotinylated with biotin succinamide (Sigma, St. Louis, Mo.) and injected intravenously into mice. One hour after injection, mice were sacrificed, and tissues were examined histochemically using peroxidase conjugated avidin (Cappel, West Chester, Pa.) by the peroxidase method (Vectastatin ABC kit, Vector, Burlingame, Calif.).

For `CC(=O)N[C@H]1[C@H](O[C@H]2[C@@H](O)[C@@H](CO)OC(O)[C@@H]2O)O[C@H](CO)[C@@H](O[C@@H]2O[C@H](CO)[C@H](O)[C@H](O[C@]3(C(=O)O)C[C@H](O)[C@@H](NC(C)=O)[C@H]([C@H](O)[C@H](O)CO)O3)[C@H]2O)[C@@H]1O[C@@H]1O[C@@H](C)[C@@H](O)[C@@H](O)[C@@H]1O` (some centres unmarked) [sLe^x oligosaccharide, NeuNAcα2→3Galβ1→4(Fucα1→3)GlcNAcβ1→3Gal], the IC50 [1] is given as 550 µM.
With “IELLQAR (SEQ ID NO:7) multivalent (Fmoc eight branch) [multivalent IELLQAR peptide, IELLQAR multivalent peptide, Fmoc eight branch MAPS, synthesized by AnaSpec]” the “metastases of human melanoma MeWo cells to the lung” value [2] was “inhibited efficiently”, the IC50 [3] was 10 µM and the “metastases of human lung carcinoma HAL-8 cells to the lung” value [4] was “inhibited efficiently”. For the same compound, the “metastasis of B16 melanoma to the lung, peptide pre-treatment” value [5] was “effective in preventing metastasis”.
IELLQAR [linear heptapeptide] gave an IC50 [3] of 200 µM.
In the case of “IELLQAR [IELLQAR peptide, synthetic IELLQAR peptide injected into mice]”, the “state of B16 melanoma cells in lung tissue sections” value [6] is reported as “non-adherent and appeared apoptotic” and the “staining of biotinylated peptide on lung vascular endothelium” value [7] is reported as “detected on the vascular surface epithelium of the lung”.
